Data reported in patent publication US11053242B2, “[9,10-dimethoxy-3-(2-methylpropyl)-1H,2H,3H,4H,6H,7H,11BH-pyrido-[2,1-a]isoquinolin-2-yl]methanol and compounds, compositions and methods relating thereto” (Neurocrine Biosciences, Inc., priority 2015, dated 2021).

Molecular target: VMAT2 (human platelet homogenate) (Homo sapiens (Human), UniProt Q05940)
Assay: Human VMAT2 Ki, slightly modified competition binding procedure (Table 11);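 note: competition binding with 90 min incubation at 25 °C, after which filter-retained radioligand was measured by scintillation counting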
Settings: 10 nM 3H-dihydrotetrabenazine
Procedure: Following incubation at 25° C. for 90 minutes, bound radioligand was collected by rapid filtration onto GF/B glass fiber filters using a Unifilter-96 Harvester (PerkinElmer). Filter plates were pre-treated with 0.1% polyethylenimine and allowed to dry overnight, and following harvesting the filter plates were washed with 800 d VMAT2 binding buffer. Bound radioligand was quantified by scintillation counting using a Topcount NXT (PerkinElmer).

Chain of VMAT2 (human platelet homogenate) (Q05940 whole entry): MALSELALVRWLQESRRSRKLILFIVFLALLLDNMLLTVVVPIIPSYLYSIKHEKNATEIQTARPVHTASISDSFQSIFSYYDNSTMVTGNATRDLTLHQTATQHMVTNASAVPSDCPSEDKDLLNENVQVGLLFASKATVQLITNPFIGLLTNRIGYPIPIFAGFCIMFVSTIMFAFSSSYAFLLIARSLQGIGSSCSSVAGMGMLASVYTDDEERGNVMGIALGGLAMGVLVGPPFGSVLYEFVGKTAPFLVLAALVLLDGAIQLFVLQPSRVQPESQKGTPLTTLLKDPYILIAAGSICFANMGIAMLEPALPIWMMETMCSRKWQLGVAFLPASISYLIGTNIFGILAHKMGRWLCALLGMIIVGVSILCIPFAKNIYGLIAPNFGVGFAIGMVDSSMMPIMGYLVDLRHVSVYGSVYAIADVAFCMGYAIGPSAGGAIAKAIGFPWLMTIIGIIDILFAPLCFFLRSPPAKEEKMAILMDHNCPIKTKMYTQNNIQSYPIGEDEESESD

Question: How did the Ki turn out when `COc1cc2c(cc1OC)[C@H]1C[C@@H](COC(=O)CCC(N)=O)[C@H](CC(C)C)CN1CC2` [Compound 2-1, [(2R,3S,11bR)-9,10-dimethoxy-3-(2-methylpropyl)-1H,2H,3H,4H,6H,7H,11bH-pyrido[2,1-a]isoquinolin-2-yl]methyl 3-carbamoylpropanoate] was run?
Answer: The Ki was less than 10 nM.

Question: With `COc1cc2c(cc1OC)[C@H]1C[C@@H](COC(=O)CCN3CCOCC3)[C@H](CC(C)C)CN1CC2` [Compound 2-2, [(2R,3S,11bR)-9,10-dimethoxy-3-(2-methylpropyl)-1H,2H,3H,4H,6H,7H,11bH-pyrido[2,1-a]isoquinolin-2-yl]methyl 3-(morpholin-4-yl)propanoate] as the compound, how does the Ki read?
Answer: Its Ki is less than 10 nM.

Question: How did the Ki turn out when `COc1cc2c(cc1OC)[C@H]1C[C@@H](COC(=O)CCn3c(=O)[nH]c4ccccc4c3=O)[C@H](CC(C)C)CN1CC2` [Compound 2-3, [(2R,3S,11bR)-9,10-dimethoxy-3-(2-methylpropyl)-1H,2H,3H,4H,6H,7H,11bH-pyrido[2,1-a]isoquinolin-2-yl]methyl 3-(2,4-dioxo-1,2,3,4-tetrahydroquinazolin-3-yl)propanoate] was run?
Answer: Its Ki is less than 10 nM.

Question: `COc1cc2c(cc1OC)[C@H]1C[C@@H](COC(=O)CCC(=O)N(C)C)[C@H](CC(C)C)CN1CC2` [Compound 2-4, [(2R,3S,11bR)-9,10-dimethoxy-3-(2-methylpropyl)-1H,2H,3H,4H,6H,7H,11bH-pyrido[2,1-a]isoquinolin-2-yl]methyl 3-(dimethylcarbamoyl)propanoate] was tested. Which Ki did it give?
Answer: The Ki was less than 10 nM.

Question: Which Ki does the source give for `CCS(=O)(=O)NCCC(=O)OC[C@@H]1C[C@@H]2c3cc(OC)c(OC)cc3CCN2C[C@H]1CC(C)C` [Compound 2-5, [(2R,3S,11bR)-9,10-dimethoxy-3-(2-methylpropyl)-1H,2H,3H,4H,6H,7H,11bH-pyrido[2,1-a]isoquinolin-2-yl]methyl 3-ethanesulfonamidopropanoate] here?
Answer: Its Ki is less than 10 nM.

Question: With `COc1cc2c(cc1OC)[C@H]1C[C@@H](COC(=O)[C@@H]3CCN(Cc4ccccc4)C3)[C@H](CC(C)C)CN1CC2` [Compound 2-6, [(2R,3S,11bR)-9,10-dimethoxy-3-(2-methylpropyl)-1H,2H,3H,4H,6H,7H,11bH-pyrido[2,1-a]isoquinolin-2-yl]methyl (3R)-1-benzylpyrrolidine-3-carboxylate] as the compound, how does the Ki read?
Answer: The Ki was less than 10 nM.

Question: With `COc1cc2c(cc1OC)[C@H]1C[C@@H](COC(=O)CCN(C)C)[C@H](CC(C)C)CN1CC2` [Compound 2-7, [(2R,3S,11bR)-9,10-dimethoxy-3-(2-methylpropyl)-1H,2H,3H,4H,6H,7H,11bH-pyrido[2,1-a]isoquinolin-2-yl]methyl 3-(dimethylamino)propanoate] as the compound, how does the Ki read?
Answer: Its Ki is less than 10 nM.

Question: For `COc1cc2c(cc1OC)[C@H]1C[C@@H](COC(=O)CN3C[C@@H](C)O[C@@H](C)C3)[C@H](CC(C)C)CN1CC2` [Compound 2-8, [(2R,3S,11bR)-9,10-dimethoxy-3-(2-methylpropyl)-1H,2H,3H,4H,6H,7H,11bH-pyrido[2,1-a]isoquinolin-2-yl]methyl 2-[(2R,6S)-2,6-dimethylmorpholin-4-yl]acetate], which Ki is on record?
Answer: Its Ki is less than 10 nM.

Question: `COc1cc2c(cc1OC)[C@H]1C[C@@H](COC(=O)CC(N)=O)[C@H](CC(C)C)CN1CC2` [Compound 2-9, [(2R,3S,11bR)-9,10-dimethoxy-3-(2-methylpropyl)-1H,2H,3H,4H,6H,7H,11bH-pyrido[2,1-a]isoquinolin-2-yl]methyl 2-carbamoylacetate] was tested. Which Ki did it give?
Answer: Its Ki is less than 10 nM.

Question: `COc1cc2c(cc1OC)[C@H]1C[C@@H](COC(=O)[C@@H]3CCCN(Cc4ccccc4)C3)[C@H](CC(C)C)CN1CC2` [Compound 2-11, [(2R,3S,11bR)-9,10-dimethoxy-3-(2-methylpropyl)-1H,2H,3H,4H,6H,7H,11bH-pyrido[2,1-a]isoquinolin-2-yl]methyl (3R)-1-benzylpiperidine-3-carboxylate] was tested. Which Ki did it give?
Answer: The Ki was less than 10 nM.

Question: With `COc1cc2c(cc1OC)[C@H]1C[C@@H](COC(=O)C3CCCN(C)C3)[C@H](CC(C)C)CN1CC2` (stereo partly drawn) [Compound 2-12, [(2R,3S,11bR)-9,10-dimethoxy-3-(2-methylpropyl)-1H,2H,3H,4H,6H,7H,11bH-pyrido[2,1-a]isoquinolin-2-yl]methyl 1-methylpiperidine-3-carboxylate] as the compound, how does the Ki read?
Answer: Its Ki is less than 10 nM.

Question: How did the Ki turn out when `COc1cc2c(cc1OC)[C@H]1C[C@@H](COC(=O)CCn3cnnn3)[C@H](CC(C)C)CN1CC2` [Compound 2-13, [(2R,3S,11bR)-9,10-dimethoxy-3-(2-methylpropyl)-1H,2H,3H,4H,6H,7H,11bH-pyrido[2,1-a]isoquinolin-2-yl]methyl 3-(1H-1,2,3,4-tetrazol-1-yl)propanoate] was run?
Answer: The Ki was less than 10 nM.

Question: How did the Ki turn out when `COc1cc2c(cc1OC)[C@H]1C[C@@H](COC(=O)CC[N+](=O)[O-])[C@H](CC(C)C)CN1CC2` [Compound 2-14, [(2R,3S,11bR)-9,10-dimethoxy-3-(2-methylpropyl)-1H,2H,3H,4H,6H,7H,11bH-pyrido[2,1-a]isoquinolin-2-yl]methyl 3-nitropropanoate] was run?
Answer: The Ki was less than 10 nM.

Question: Which Ki does the source give for `COc1cc2c(cc1OC)[C@H]1C[C@@H](COC(=O)CCN3CCN(C)CC3)[C@H](CC(C)C)CN1CC2` [Compound 2-15, [(2R,3S,11bR)-9,10-dimethoxy-3-(2-methylpropyl)-1H,2H,3H,4H,6H,7H,11bH-pyrido[2,1-a]isoquinolin-2-yl]methyl 3-(4-methylpiperazin-1-yl)propanoate] here?
Answer: Its Ki is less than 10 nM.

Question: With `COc1cc2c(cc1OC)[C@H]1C[C@@H](COC(=O)CCNS(=O)(=O)C(C)C)[C@H](CC(C)C)CN1CC2` [Compound 2-16, [(2R,3S,11bR)-9,10-dimethoxy-3-(2-methylpropyl)-1H,2H,3H,4H,6H,7H,11bH-pyrido[2,1-a]isoquinolin-2-yl]methyl 3-(propane-2-sulfonamido)propanoate] as the compound, how does the Ki read?
Answer: Its Ki is less than 10 nM.

Question: For `COc1cc2c(cc1OC)[C@H]1C[C@@H](COC(=O)C(C)(C)C)[C@H](CC(C)C)CN1CC2` [Compound 2-17, [(2R,3S,11bR)-9,10-dimethoxy-3-(2-methylpropyl)-1H,2H,3H,4H,6H,7H,11bH-pyrido[2,1-a]isoquinolin-2-yl]methyl 2,2-dimethylpropanoate], which Ki is on record?
Answer: Its Ki is 10 to 500 nM.

Question: With `COc1cc2c(cc1OC)[C@H]1C[C@@H](COC(=O)C3(C)COC3)[C@H](CC(C)C)CN1CC2` [Compound 2-18, [(2R,3S,11bR)-9,10-dimethoxy-3-(2-methylpropyl)-1H,2H,3H,4H,6H,7H,11bH-pyrido[2,1-a]isoquinolin-2-yl]methyl 3-methyloxetane-3-carboxylate] as the compound, how does the Ki read?
Answer: Its Ki is less than 10 nM.

Question: With `COc1cc2c(cc1OC)[C@H]1C[C@@H](COC(=O)CCN3CCCCC3)[C@H](CC(C)C)CN1CC2` [Compound 2-19, [(2R,3S,11bR)-9,10-dimethoxy-3-(2-methylpropyl)-1H,2H,3H,4H,6H,7H,11bH-pyrido[2,1-a]isoquinolin-2-yl]methyl 3-(piperidin-1-yl)propanoate] as the compound, how does the Ki read?
Answer: The Ki was less than 10 nM.

Question: Which Ki does the source give for `COc1cc2c(cc1OC)[C@H]1C[C@@H](COC(=O)C3CN(Cc4ccccc4)C3)[C@H](CC(C)C)CN1CC2` [Compound 2-21, [(2R,3S,11bR)-9,10-dimethoxy-3-(2-methylpropyl)-1H,2H,3H,4H,6H,7H,11bH-pyrido[2,1-a]isoquinolin-2-yl]methyl 1-benzylazetidine-3-carboxylate] here?
Answer: The Ki was less than 10 nM.

Question: Which Ki does the source give for `COc1cc2c(cc1OC)[C@H]1C[C@@H](COC(=O)C3CCOCC3)[C@H](CC(C)C)CN1CC2` [Compound 2-22, [(2R,3S,11bR)-9,10-dimethoxy-3-(2-methylpropyl)-1H,2H,3H,4H,6H,7H,11bH-pyrido[2,1-a]isoquinolin-2-yl]methyl oxane-4-carboxylate] here?
Answer: The Ki was less than 10 nM.

Question: Which Ki does the source give for `COc1cc2c(cc1OC)[C@H]1C[C@@H](COC(=O)CCn3ccc(C)n3)[C@H](CC(C)C)CN1CC2` [Compound 2-23, [(2R,3S,11bR)-9,10-dimethoxy-3-(2-methylpropyl)-1H,2H,3H,4H,6H,7H,11bH-pyrido[2,1-a]isoquinolin-2-yl]methyl 3-(3-methyl-1H-pyrazol-1-yl)propanoate] here?
Answer: Its Ki is less than 10 nM.

Question: With `COc1cc2c(cc1OC)[C@H]1C[C@@H](COC(=O)C(C)(C)O)[C@H](CC(C)C)CN1CC2` [Compound 2-24, [(2R,3S,11bR)-9,10-dimethoxy-3-(2-methylpropyl)-1H,2H,3H,4H,6H,7H,11bH-pyrido[2,1-a]isoquinolin-2-yl]methyl 2-hydroxy-2-methylpropanoate] as the compound, how does the Ki read?
Answer: Its Ki is 10 to 500 nM.

Question: With `COc1cc2c(cc1OC)[C@H]1C[C@@H](COC(=O)[C@H]3CCN(Cc4ccccc4)C3)[C@H](CC(C)C)CN1CC2` [Compound 2-26, [(2R,3S,11bR)-9,10-dimethoxy-3-(2-methylpropyl)-1H,2H,3H,4H,6H,7H,11bH-pyrido[2,1-a]isoquinolin-2-yl]methyl (3S)-1-benzylpyrrolidine-3-carboxylate] as the compound, how does the Ki read?
Answer: The Ki was less than 10 nM.

Question: With `COc1cc2c(cc1OC)C1CC(COC(=O)C3CC(C)(C)N([O])C3(C)C)C(CC(C)C)CN1CC2` [Compound 2-27, [3-({[(2R,3S,11bR)-9,10-dimethoxy-3-(2-methylpropyl)-1H,2H,3H,4H,6H,7H,11bH-pyrido[2,1-a]isoquinolin-2-yl]methoxy}carbonyl)-2,2,5,5-tetramethylpyrrolidin-1-yl]oxidanyl] as the compound, how does the Ki read?
Answer: Its Ki is 10 to 500 nM.

Question: With `COc1cc2c(cc1OC)[C@H]1C[C@@H](COC(=O)CC(C)(C)n3cccc3)[C@H](CC(C)C)CN1CC2` [Compound 2-28, [(2R,3S,11bR)-9,10-dimethoxy-3-(2-methylpropyl)-1H,2H,3H,4H,6H,7H,11bH-pyrido[2,1-a]isoquinolin-2-yl]methyl 3-methyl-3-(1H-pyrrol-1-yl)butanoate] as the compound, how does the Ki read?
Answer: The Ki was 10 to 500 nM.

Question: How did the Ki turn out when `COc1cc2c(cc1OC)[C@H]1C[C@@H](COC(=O)CCn3nccc3C)[C@H](CC(C)C)CN1CC2` [Compound 2-29, [(2R,3S,11bR)-9,10-dimethoxy-3-(2-methylpropyl)-1H,2H,3H,4H,6H,7H,11bH-pyrido[2,1-a]isoquinolin-2-yl]methyl 3-(5-methyl-1H-pyrazol-1-yl)propanoate] was run?
Answer: The Ki was 10 to 500 nM.

Question: Which Ki does the source give for `COc1cc2c(cc1OC)[C@H]1C[C@@H](COC(=O)CC3NC(=O)NC3=O)[C@H](CC(C)C)CN1CC2` (stereo partly drawn) [Compound 2-30, [(2R,3S,11bR)-9,10-dimethoxy-3-(2-methylpropyl)-1H,2H,3H,4H,6H,7H,11bH-pyrido[2,1-a]isoquinolin-2-yl]methyl 2-(2,5-dioxoimidazolidin-4-yl)acetate] here?
Answer: The Ki was less than 10 nM.
